Tests used:
[1] = test system: phosphorylated CREB (pCREB); experiment: pCREB immunohistochemistry after behavioral testing; type: in vivo, C57/Bl6 mice; conditions: test condition
Method: (§1) Independent groups of mice (N = 10 per group) were used. An additional group composed by young vehicle mice (4–5 months young-vehicles, N = 10) was added for determination of the aging effect on both memory and phosphorylated CREB immunoreactivities, as compared to middle-aged Vehicles. For the immunohistochemical study, animals submitted to D1 memory testing were compared to “naïve” mice isolated in the colony room (with N = 5 per group; Naïve condition) and that underwent the food deprivation procedure and drug treatments as behaving animals (Test condition).
Thirty minutes after completion of the test session, mice were deeply anesthetized (Avertin, 10 mL/kg intraperitoneally i.p.), and perfused transcardially with an ice-cold solution of 4% paraformaldehyde in phosphate buffer (0.1 M, pH 7.4). After perfusion, brains were removed and post-fixed overnight in the same fixative at 4°C. Brains were then put in a sucrose solution (30% in Tris Buffer 0.1 M, pH 7.4) during 24 h. They were then frozen and cut in […] coronal free-floating sections with a freezing microtome (Leica) to proceed to immunochemistry.
Total CREB (tCREB) and phosphorylated CREB (pCREB) immunostainings were performed as described in full previously ([Vandesquille et al., 2013]; [Dominguez et al., 2014], [2016]). Countings were made in the following brain regions according to [Paxinos and Franklin (2001)] atlas: the CA1 of the dorsal (dCA1) and ventral (vCA1) hippocampus, the prelimbic cortex (PL), the dorsal striatum (St), the basolateral amygdala nucleus (BLA) and the medial septum nucleus (MS). Digital images were captured at 10X magnification using an Olympus (BX50) and an imaging analysis system (ImageJ®). At least six serial sections for each brain region were analyzed using a computerized image analysis system (Visiolab 2000®, Biocom, and V4.50). Quantification was expressed as mean number of positive nuclei per mm^2.

[2] = test system: middle-aged mice; experiment: contextual serial discrimination (CSD) task, contextual memory; type: in vivo, C57/Bl6 mice; conditions: for effect on SCM scores as compared to vehicle: Experiment 1, middle-aged mice, 9 days oral; for strength of contextual memory (SCM) score (% correct responses - % interference responses): Experiment 2, middle-aged mice, NS vs vehicle
Description: The memory task and apparatus has been fully described previously ([Chauveau et al., 2009]). The contextual serial discrimination (CSD) task is based on two successive discriminations in a four-hole board which can be retrieved with the help of specific temporal and contextual cues associated with each of them.
The acquisition phase took place in room A where animals learned two consecutive spatial discriminations (D1 and D2; Figure 1A) which differed by the color and texture of the floor and were separated by a 2-min delay interval. For both D1 and D2, 10 20-mg food pellets were available during the 6-min exploration sessions; for D2 specifically, the baited hole was consistently located in the opposite symmetrical hole. Environmental cues made of colored paper sheets were positioned at 1.00 m above the board. At the end of the acquisition phase, mice returned in the animal’s room for 24 h. Animals retained for the test phase in the present study for both Experiments 1 and 2 have eaten at least 7–8 pellets/10 during both acquisitions.
Mice were replaced on the D1 floor in the board without any pellet in the apparatus and were allowed to freely explore for 6 min during which the number of head-dips in each hole was counted. This allowed measures of the % of “correct responses” (head-dips into the hole previously baited on the same floor-context), the % of “interference responses” (head-dips into the hole previously baited at D2, on the other floor-context) (Figure 1B) and of the “strength” of “contextual memory” score (SCM) (% correct responses - % interference responses). Thus, since correct responses are based on the use of the internal context (color of the floor) and interferent responses are based on the use of spatial allocentric cues previously associated with the other floor, thus the trend of SCM score toward a positive difference represents the gain of internal contextual memory, at the expense of allocentric spatial one.
The two last administrations were delivered 1 h before the acquisition and test phases.
as §1

[3] = test system: acetylcholine extracellular levels; experiment: intracerebral microdialysis, acetylcholine in mPFC and ventral hippocampus; type: in vivo, Wistar (Han) rats; conditions: at 30 min
Method: The locomotor activity of the rats was recorded simultaneously during the sampling as a control method to assess a possible contribution of the handling stress and drug administration to microdialysis data.
Male Wistar (Han) rats, weighting about 265 g, were used for the experiment. At their arrival at facility, rats were housed in humidity and temperature controlled room on a 12h light/dark cycle (light on at 6:00 h) with water and food available ad libitum. Rats were anaesthetized with isoflurane and stereotaxically implanted with two guide cannula: one into the ventral hippocampus (vHPC: Interaural + 3.7 mm, Lateral + 4.8 mm, Ventral -3.8 mm providing the final -8.0 mm for the tip of the microdialysis probe) and the second into the medial prefrontal cortex (mPFC: Interaural + 12.2 mm, Lateral - 0.5 mm, Ventral -1.6 mm providing the final -5.6 mm for the tip of the microdialysis probe). After a recovery of 5 days, a microdialysis probe was inserted into the each respective guide cannula of awake rat. The probes were perfused at a constant flow-rate of 1 µl/min with sterile artificial CSF solution in the absence of an AChE inhibitor (148 mM NaCl, 4 mM KCl, 0.8 mM MgCl2, 1.4 CaCl2, 1.2 mM Na2HPO4, 0.3 mM NaH2PO4, pH 7.2). Following 120-min stabilization period, the samples were collected every 30 minutes. The first 3 samples (-90 to 0 min) were taken for determination of basal extracellular levels of ACh. […] After finalizing the experiment, the animals were sacrificed by an overdose of isoflurane and dislocation of the neck.
The levels of ACh in the microdialysates were determined by high-performance liquid chromatography (HPLC) linked to a postcolumn immobilized enzyme reactor followed by electrochemical detection. Briefly, the HPLC system (HTEC-500, Eicom Corp.) included a pulse-free microflow pump, a degasser and an amperometric detector equipped with a platinum electrode. The potential of the working electrode vs. Ag/AgCl ref. electrode was set to +0.45 V vs. an Ag/AgCl reference elctrode. Samples were injected by use of a CMA/200 Refrigerated Microsampler (CMA/Microdialysis). The chromatograms were recorded and integrated by use of a computerized data acquisition system (DataApex, Prague, Czech Republic). ACh was separated on a 150 x 2.0 I.D. mm narrow-bore column, packed with C18 polymer gel, 4 μm particle size. The enzyme reactor AC-ENZYMPAK II (Eicom Corp.) was used. The mobile phase was a 50 mM potassium hydrogen carbonate buffer containing 3.7 mM sodium 1-octanesulfonate, 0.13 mM EDTA-2Na, final pH 7.2. […] Determination of ACh levels in the groups of rats treated with drugs and vehicle was performed in blind conditions.

[4] = test system: mice; experiment: primary observation (IRWIN) test; type: in vivo; conditions: pharmacological doses, alone or in combination, data not shown
[5] = test system: H3 receptors; parameters: method as in Panayi et al., 2014; conditions: rats, mice, monkeys memory paradigms; ref Panayi et al., 2014; cited from earlier work
[6] = in vivo
Method: The sampling times are 30 min, 1, 2, 4, and 6 h. In each mouse, two time points of blood sampling were performed. Plasma was extracted from the blood sample by centrifugation (+4°C, 3000 g, 10 min) and stored at -80°C. Then, plasma samples were sent in dry ice to MDS (MDS Pharma Services, Switzerland) for the pharmacokinetic analysis.

[7] = middle-aged mice, Donepezil 0.3 mg/kg (ANOVA factor)

With `COc1cc2c(cc1OC)C(=O)C(CC1CCN(Cc3ccccc3)CC1)C2` (centres unmarked) [Donepezil, reference compound] the “increase of pCREB expression in the MS” value ([1]; Donepezil alone (0.3 mg/kg) as compared to vehicle) was “+174.3%”, the “effect on pCREB immunopositive cells in the MS” value [1, 7] was “significant increase” and the “effect on pCREB immunopositive cells in the dCA1” value [1, 7] was “significant increase”. The “effect on SCM scores as compared to vehicle” value (shortened to “effect … compared to vehicle”) ([2]; Donepezil alone at all doses (0.1 and 0.3 mg/kg)) was “did not show significant effect”, the “strength of contextual memory (SCM) score (% correct responses - % interference responses)” value ([2]; Donepezil 0.3 mg/kg alone) was “+7.48 ± 3.60” and the “maximal increase of ACh levels” value ([3]; rat mPFC, Donepezil 0.1 mg/kg i.p.) was 175 % of predrug values. The “maximal increase of ACh levels” value ([3]; rat mPFC, Donepezil 0.3 mg/kg i.p.) was 216 % of predrug values, the “maximal increase of ACh levels” value ([3]; rat vHPC, Donepezil 0.1 mg/kg i.p.) was 180 % of predrug values and the “maximal increase of ACh levels” value ([3]; rat vHPC, Donepezil 0.3 mg/kg i.p.) was 207 % of predrug values.
For `NC(=O)c1ccc(OCCCN2CC3CCCC3C2)cc1` (centres unmarked) [S 38093], the observable clinical signs [4] was “did not induce any observable clinical signs”, the “effect on pCREB immunopositive cells in the dCA1 and the MS” value ([1]; middle-aged mice, S 38093 at both doses (0.1 and 0.3 mg/kg)) was “no significant effect” and the “effect … compared to vehicle” value ([2]; S 38093 0.1 mg/kg alone) was “did not show significant effect”. For the same compound, the “effect … compared to vehicle” value ([2]; S 38093 1.0 mg/kg alone) was “did not show significant effect”, the “strength of contextual memory (SCM) score (% correct responses - % interference responses)” value ([2]; S 38093 0.1 mg/kg alone) was -14.3 ± 5.76 and the “strength of contextual memory (SCM) score (% correct responses - % interference responses)” value ([2]; S 38093 0.3 mg/kg alone) was “+5.19 ± 6.68”. For the same compound, the “mean pharmacological dose with procognitive properties” value [5] was 0.3 mg/kg, the “maximal increase of ACh levels” value ([3]; rat mPFC, S 38093 3 mg/kg i.p., n.s.) was 158 % of predrug values and the “maximal increase of ACh levels” value ([3]; rat mPFC, S 38093 10 mg/kg i.p.) was 234 % of predrug values. For the same compound, the “maximal increase of ACh levels” value ([3]; rat vHPC, S 38093 3 mg/kg i.p.) was 153 % of predrug values, the “maximal increase of ACh levels” value ([3]; rat vHPC, S 38093 10 mg/kg i.p.) was 184 % of predrug values and the AUC ([6]; C57/Bl6, mouse, po, 0.1 mg/kg) was 9.56 ng·h/mL. It also gave a Cmax ([6]; C57/Bl6, mouse, po, 0.1 mg/kg) of 3.04 ng/mL, a Tl/2 ([6]; C57/Bl6, mouse, po, 1 mg/kg) of 2.37 h and an AUC ([6]; C57/Bl6, mouse, po, 1 mg/kg) of 92.4 ng·h/mL. For the same compound, the Cmax ([6]; C57/Bl6, mouse, po, 1 mg/kg) was 55.6 ng/mL and the “plasma exposure when administered as a combination” value ([6]; mouse) was “no increase”.
